The text below walks through data of PMC3388911, “Structure of Leishmania major cysteine synthase” (Acta Crystallographica Section F: Structural Biology and …, 2012).

For orientation: Ki means a dissociation constant, usually derived from enzyme kinetics or from competition with a known ligand. Low values mean a stronger hold on the target, high ones a looser hold on the target. Broadly, the IC50 is the point on the concentration scale where inhibition reaches its midpoint. The term stoichiometry N denotes a count of units in the complex or per binding partner.

Where two headings read alike, the source gives them in different places. Where a SMILES comes first, the peptide text is derived from it. Where no end group is shown, it is not given here. The star is where a group is joined. Cbz = O=C(OCc1ccccc1)*

The target of series [1] is T1, LmCS (L. major cysteine synthase) (Leishmania major, UniProt Q4Q159).
T1 sequence (Q4Q159 1-333): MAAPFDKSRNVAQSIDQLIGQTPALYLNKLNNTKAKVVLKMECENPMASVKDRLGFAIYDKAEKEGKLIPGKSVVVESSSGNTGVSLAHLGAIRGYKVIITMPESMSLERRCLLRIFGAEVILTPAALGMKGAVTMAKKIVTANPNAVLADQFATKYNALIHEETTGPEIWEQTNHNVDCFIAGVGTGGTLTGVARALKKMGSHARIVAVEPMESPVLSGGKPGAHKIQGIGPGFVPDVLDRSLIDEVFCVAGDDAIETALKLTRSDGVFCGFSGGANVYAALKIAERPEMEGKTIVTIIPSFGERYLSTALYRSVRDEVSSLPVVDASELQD
Description: biochemical.

Series [2] has as its target T2, AtOAS-TL (A. thaliana O-acetylserine thiol-lyase) (Arabidopsis thaliana, UniProt P47998). As to conditions: read-out: AtOAS-TL IC50; 3 mM OAS, 2 mM sodium sulfide, pH 7.8, room temperature; values with ± are mean ± SD of three determinations, others single IC50 curve.
In series [3] the test system is Mycobacterium tuberculosis CS (OASS). Conditions: ref Schnell et al., 2007; cited from earlier work.
The target in series [4] is T2, AtOAS-TL (A. thaliana O-acetylserine thiol-lyase). Description: biochemical.
Series [5] deals with the molecule itself. Nature of the series: crystal structure; hanging drop at 293 K, 7.5% PGA-LM, 19% PEG 3350, 0.1 M Tris-HCl pH 7.8; P212121, dimer in the asymmetric unit; 1.8 Å; molecular replacement.
For series [6], the target named is Arabidopsis thaliana O-acetylserine thiol-lyase (Arabidopsis thaliana, UniProt P47998 1-322). Nature of the series: cell-based or functional assay.
Series [7] has as its target T3, Leishmania major cysteine synthase, C-terminally His-tagged (biochemical analysis) (Leishmania major) (UniProt Q4Q159).
T3 sequence: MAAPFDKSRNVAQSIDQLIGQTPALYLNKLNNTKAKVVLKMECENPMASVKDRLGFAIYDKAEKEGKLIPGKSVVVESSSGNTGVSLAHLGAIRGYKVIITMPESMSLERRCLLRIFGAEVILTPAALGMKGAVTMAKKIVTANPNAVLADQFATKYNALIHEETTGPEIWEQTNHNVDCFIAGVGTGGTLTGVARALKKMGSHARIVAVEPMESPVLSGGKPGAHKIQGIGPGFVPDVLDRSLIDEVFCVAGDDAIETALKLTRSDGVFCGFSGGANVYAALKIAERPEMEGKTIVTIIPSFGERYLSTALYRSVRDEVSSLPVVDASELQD

For series [8], the target named is Arabidopsis thaliana O-acetylserine thiol-lyase (Arabidopsis thaliana) (UniProt P47998).
Where [9] appears, read: LmCS IC50, 3 mM OAS, 2 mM sodium sulfide, pH 7.8, room temperature, values with ± are mean ± SD of three determinations, others single IC50 curve.
[10] abbreviates: 3 mM OAS, 2 mM sodium sulfide, pH 7.8, room temperature, values with ± are mean ± SD of three determinations, others single IC50 curve, read-out: LmCS IC50.

Chain of Arabidopsis thaliana O-acetylserine thiol-lyase (Arabidopsis thaliana) (P47998 whole entry): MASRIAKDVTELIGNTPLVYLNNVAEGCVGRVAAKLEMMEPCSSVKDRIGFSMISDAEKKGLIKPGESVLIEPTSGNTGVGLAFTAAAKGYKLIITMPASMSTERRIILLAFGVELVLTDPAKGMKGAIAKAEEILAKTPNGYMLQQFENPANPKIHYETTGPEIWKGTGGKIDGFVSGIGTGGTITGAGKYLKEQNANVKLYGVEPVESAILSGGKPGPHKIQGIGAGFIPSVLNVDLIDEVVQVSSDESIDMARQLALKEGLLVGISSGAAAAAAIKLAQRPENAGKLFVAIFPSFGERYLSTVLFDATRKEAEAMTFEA
T2 sequence (P47998 whole entry): as above
Chain of Arabidopsis thaliana O-acetylserine thiol-lyase (P47998 whole entry): as above

The molecule `CC[C@H](C)[C@H](NC(=O)[C@@H](NC(=O)[C@H](Cc1ccc(O)cc1)NC(=O)[C@@H](N)CC(=O)O)C(C)C)C(=O)O` [DYVI] (H-DYVI-OH) came in with a Ki in series [1] of 4 µM. The IC50 in series [1] (setting [9]) is 7 ± 1 µM.

For the molecule `CC[C@H](C)[C@H](NC(=O)CNC(=O)[C@H](CO)NC(=O)CN)C(=O)O` [GSGI] (H-GSGI-OH), the IC50 in series [2] was no more than 2000 µM; in series [1] (LmCS IC50, 3 mM OAS, 2 mM sodium sulfide), roughly 1500 µM; in series [1] (setting [9]), 1500 µM. As for `CC[C@H](C)[C@H](N)C(=O)O` [L-Isoleucine], the IC50 in series [1] (setting [10]) is greater than 4000 µM. Besides, in series [1] (at 4 mM), the “inhibition of LmCS” value is given as “no activity”. Regarding `CC[C@H](C)[C@H](NC(=O)Cc1c[nH]c2ccccc12)C(=O)O` [N-3-Indolylacetyl-L-isoleucine], the 50% inhibitory concentration (IC50) in series [1] (setting [10]) amounted to 260 µM. As for `CC[C@H](C)[C@H](NC(=O)OCc1ccccc1)C(=O)O` [N-CBZ-L-isoleucine], in series [1], the IC50 came to 320 µM. Same read-out and setting: with `CC[C@H](C)[C@H](NC(=O)[C@@H](NC(=O)OCc1ccccc1)C(C)C)C(=O)O` [N-CBZ-L-valine-isoleucine] (Cbz-Val-Ile-OH) the figure was 1410 µM. For (γ-Glu)4, the “inhibition of LmCS” value is “unable to detect any significant inhibition” in series [1] (tested up to a concentration of 500 µM) and “insignificant inhibitory activity” in series [1] (tested up to a concentration of 500 µM, listed as D-glutamate tetrapeptide).

DFSI: in series [3], the “type of inhibition of M. tuberculosis OASS” value is on record as “competitive inhibitor”. DGSGI [DGSGI]: the figures for the IC50 in series [4] and in series [1] (setting [9]) were 170 µM and 620 ± 50 µM, respectively. For EGDGSGI [EGDGSGI] the same measures were 240 µM and 270 ± 70 µM.

B1: Leishmania major cysteine synthase (crystallised form, His tag cleaved) (enzyme)
chain: MAAPFDKSRNVAQSIDQLIGQTPALYLNKLNNTKAKVVLKMECENPMASVKDRLGFAIYDKAEKEGKLIPGKSVVVESSSGNTGVSLAHLGAIRGYKVIITMPESMSLERRCLLRIFGAEVILTPAALGMKGAVTMAKKIVTANPNAVLADQFATKYNALIHEETTGPEIWEQTNHNVDCFIAGVGTGGTLTGVARALKKMGSHARIVAVEPMESPVLSGGKPGAHKIQGIGPGFVPDVLDRSLIDEVFCVAGDDAIETALKLTRSDGVFCGFSGGANVYAALKIAERPEMEGKTIVTIIPSFGERYLSTALYRSVRDEVSSLPVVDASELQD
notes: Leishmania major cysteine synthase (EC 2.5.1.47); LmCS gene subcloned from pET21a+ into pET15bTEV; theoretical mass of one subunit 35.6 kDa; residues 3-213 and 241-333 (subunit A) and 4-214 and 241-333 (subunit B) are seen in the model; The pyridoxal phosphate cofactor was lost in the crystal; A fragment of gamma-poly-D-glutamic acid lies in the active site; also called LmCS; L. major CS; source: …
As to B1, the “stoichiometry N” value in series [5] was 2.

B2: DYVI, peptide based on the C-terminus of A. thaliana serine acetyltransferase (peptide)
peptide: DYVI
modifications: not fully specified
In the case of B2, the “IC50 of inhibition of cysteine synthase activity (cysteine production; 3 mM OAS, 2 mM sodium sulfide)” value in series [6] was determined as 8 µM; in series [7] it was 7 µM.

B3: DGSGI, Leishmania SAT C-terminal peptide (peptide)
peptide: DGSGI
Take B3: in series [8], the IC50 of inhibition of cysteine synthase activity (cysteine production; 3 mM OAS, 2 mM sodium sulfide); single IC50 curve stood at 170 µM. The molecule also had an IC50 of inhibition of cysteine synthase activity (cysteine production; 3 mM OAS, 2 mM sodium sulfide) in series [7] of 620 µM.

B4: EGDGSGI, Leishmania SAT C-terminal heptapeptide (peptide)
peptide: EGDGSGI
In series [8], B4 returned an IC50 of inhibition of cysteine synthase activity (cysteine production; 3 mM OAS, 2 mM sodium sulfide); single IC50 curve of 240 µM. The molecule further gave an IC50 of inhibition of cysteine synthase activity (cysteine production; 3 mM OAS, 2 mM sodium sulfide) in series [7] of 270 µM.

B5: GSGI, Leishmania SAT C-terminal peptide (peptide)
peptide: GSGI
For B5, the figures for the IC50 of inhibition of cysteine synthase activity (cysteine production; 3 mM OAS, 2 mM sodium sulfide); single IC50 curve in series [8] and in series [7] were less than 2000 µM and 1500 µM, respectively.
